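Growth conditions: 96-well plates. Treatment: test compound, 48 hours, 5 concentrations. Analysis: linear interpolation between bracketing concentrations; unreached endpoints set to highest concentration. Abbreviation: GI50, concentration required for 50% inhibition of growth. At the TGI there is no net growth.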
Key:
Assay in all cases: inhibition of tumour cell growth, NCI panel, 48 h
M14 melanoma = test system: M14 melanoma
UO-31 renal = test system: UO-31 renal
OVCAR-8 ovarian = test system: OVCAR-8 ovarian
CAKI-1 renal = test system: CAKI-1 renal
MDA-MB-231 breast = test system: MDA-MB-231 breast
T-47D breast = test system: T-47D breast
NCI-H23 lung = test system: NCI-H23 lung
NCI/ADR-RES ovarian = test system: NCI/ADR-RES ovarian
UACC-257 melanoma = test system: UACC-257 melanoma
KM12 colon = test system: KM12 colon

SMILES | GI50 (M14 melanoma) [µM] | TGI (M14 melanoma) [µM] | GI50 (UO-31 renal) [µM] | TGI (UO-31 renal) [µM] | GI50 (OVCAR-8 ovarian) [µM] | TGI (OVCAR-8 ovarian) [µM] | GI50 (CAKI-1 renal) [µM] | TGI (CAKI-1 renal) [µM] | GI50 (MDA-MB-231 breast) [µM] | TGI (MDA-MB-231 breast) [µM] | GI50 (T-47D breast) [µM] | TGI (T-47D breast) [µM] | GI50 (NCI-H23 lung) [µM] | TGI (NCI-H23 lung) [µM] | GI50 (NCI/ADR-RES ovarian) [µM] | TGI (NCI/ADR-RES ovarian) [µM] | GI50 (UACC-257 melanoma) [µM] | TGI (UACC-257 melanoma) [µM] | GI50 (KM12 colon) [µM] | TGI (KM12 colon) [µM]
CCCCCCCCCCCCCCCC1=NC(C)(C)CN1C(C)C | 1.57 | 2.91 | 1.44 | 2.84 | 1.72 | 3.58 | 1.13 | 2.53 | 1.61 | 3.1 | 1.93 | 4.54 | 1.49 | 2.81 | 1.78 | 4.33 | 1.77 | 3.31 | 1.33 | 2.6
COc1cc2c3c(n(C)c(=O)c2cc1OC)-c1cc2c(cc1/C3=C\CCNCCCN)OCO2 | 5.32 | 20.5 | 42.5 | > 100 | 2.98 | 44.6 | 3.44 | 14.3 | 0.58 | 3.05 | 2.64 | 15.3 | 2.67 | 12.4 | > 100 | > 100 | – | 39.7 | 1.41 | 10.5
O=C1C(Cl)=C(Nc2cccc(O)c2)C(=O)N1Cc1ccc(Cl)cc1Cl | 8.18 | 22.8 | 1.87 | 14.5 | 1.94 | 27.1 | 13.4 | 26.7 | 1.17 | 11 | 19.1 | > 100 | 3.78 | 17.8 | 2 | 26.6 | 8.76 | 21.5 | 10.1 | 25.2
CC(=C/c1ccccc1)/C=C1/NC(=S)N(/C=C2\C(=O)Oc3ccccc3C2=O)C1=O | – | > 100 | 91.7 | > 100 | – | > 100 | 59.7 | > 100 | – | > 100 | – | > 100 | – | > 100 | – | > 100 | – | > 100 | – | > 100
O=C(CCc1ccc(O)cc1)N/N=C/c1cc(Br)ccc1O | 2.75 | 17.4 | 1.34 | 7.19 | 3.7 | > 100 | 1.95 | 8.99 | 4.45 | 53.6 | 3.74 | 41.6 | 7.42 | > 100 | 2.34 | > 100 | 2.62 | 11.4 | 3.36 | 31.5
C=CC1=C(C)C2=NC1=CC1=NC(=C(CC)/C1=C\O)C=C1N=C3C(=C1C)C(=O)[C@H](C(=O)OC)C3=C1NC(=C2)[C@@H](C)[C@@H]1CCC(=O)O | – | > 100 | – | > 100 | – | > 100 | – | > 100 | – | > 100 | – | > 100 | – | > 100 | – | > 100 | – | > 100 | – | > 100
N#CC1C=Cc2c(ccc3ccccc23)N1C(=O)c1ccccc1 (centres undefined) | 0.209 | > 100 | 1.01 | > 23.6 | 0.461 | > 100 | 0.108 | – | 0.763 | > 100 | 0.103 | > 100 | 0.433 | > 100 | 0.187 | – | 14.7 | > 100 | 0.141 | 3.98
CC(C)=CCCC(C)C1=C(O)C(=O)C(C)=CC1=O (centres undefined) | – | 36 | – | 21.3 | – | 40.9 | – | 15.1 | – | 7.94 | – | 3.92 | – | 34 | – | > 49.1 | – | 26.1 | – | 34.6
O=C(O)c1cc2ccccc2c2c1C(=O)c1ccccc1-2 | – | > 100 | – | > 100 | – | > 100 | – | > 100 | – | > 100 | – | > 100 | – | > 100 | – | > 100 | – | > 100 | – | > 100
Nc1ncc(-c2cccc(S(N)(=O)=O)c2)c2scc(-c3ccc(F)c(Cl)c3)c12 | 7.54 | 16.8 | 2.22 | 21 | 6.38 | > 22.6 | 5.51 | 21.4 | 5.94 | > 25 | 3.59 | 11 | 7.05 | > 21 | 7.14 | > 25 | 6.46 | 17.2 | 5.56 | 14.7
COc1c(B(O)O)cc(F)cc1-c1nc2ccc3[nH]ncc3c2c2c1CCCC2 | 2.64 | 5.44 | 0.045 | 9.21 | 1.55 | 17.7 | < 0.01 | 0.134 | < 0.01 | 15 | 2.62 | 8.99 | 2.02 | 7.61 | 2.03 | 13.7 | 3.65 | 12.5 | 1.26 | 7.62
C=C1C(=O)O[C@H]2[C@H]1CC/C(COC(=O)NCc1ccc(Cn3c(=O)sn(-c4ccccc4)c3=O)cc1)=C\CC[C@@]1(C)O[C@@H]21 | 1.8 | 3.58 | 1.68 | 3.16 | 2.83 | 8.55 | 2.49 | 6.1 | 1.71 | 3.52 | 1.98 | 4.66 | 3.55 | 12.6 | 19.1 | 63.3 | 1.86 | 4.14 | 3.46 | 12.7
Cc1cccc(Cc2cnc(NC(=O)CCc3ccc(C)o3)s2)c1 | 0.136 | > 41.4 | 0.589 | > 100 | 0.406 | > 100 | 0.235 | 50.8 | 0.45 | 23.8 | 0.427 | > 100 | 0.593 | > 100 | 0.228 | > 100 | 15.4 | > 100 | 0.16 | > 100

Reference: PubChem BioAssay (NCI)
